In the assay the target is JAK1 (Homo sapiens (Human), UniProt P23458). The experiment in a line: Analysis of JAK1 activity inhibition ability (ADP-Glo Kinase Assay). The assay is classed as biochemical. To be noted: JAK1 enzyme, ADP-Glo luminescence, ATP 250 uM, IRS-itide substrate, 30° C. 40 minutes; read-out: IC50. Put shortly: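 JAK1 enzyme, IRS-itide substrate (40 ng/mL) and 250 uM ATP, both as prepared in kinase buffer (Tris-HCl pH 7.5, MgCl2, BSA, DTT), reacted with compound 40 min at 30 °C. ADP formed was detected by ADP-Glo luminescence; IC50 is the concentration giving 50% inhibition versus control.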
Sequence of JAK1 (P23458 whole entry): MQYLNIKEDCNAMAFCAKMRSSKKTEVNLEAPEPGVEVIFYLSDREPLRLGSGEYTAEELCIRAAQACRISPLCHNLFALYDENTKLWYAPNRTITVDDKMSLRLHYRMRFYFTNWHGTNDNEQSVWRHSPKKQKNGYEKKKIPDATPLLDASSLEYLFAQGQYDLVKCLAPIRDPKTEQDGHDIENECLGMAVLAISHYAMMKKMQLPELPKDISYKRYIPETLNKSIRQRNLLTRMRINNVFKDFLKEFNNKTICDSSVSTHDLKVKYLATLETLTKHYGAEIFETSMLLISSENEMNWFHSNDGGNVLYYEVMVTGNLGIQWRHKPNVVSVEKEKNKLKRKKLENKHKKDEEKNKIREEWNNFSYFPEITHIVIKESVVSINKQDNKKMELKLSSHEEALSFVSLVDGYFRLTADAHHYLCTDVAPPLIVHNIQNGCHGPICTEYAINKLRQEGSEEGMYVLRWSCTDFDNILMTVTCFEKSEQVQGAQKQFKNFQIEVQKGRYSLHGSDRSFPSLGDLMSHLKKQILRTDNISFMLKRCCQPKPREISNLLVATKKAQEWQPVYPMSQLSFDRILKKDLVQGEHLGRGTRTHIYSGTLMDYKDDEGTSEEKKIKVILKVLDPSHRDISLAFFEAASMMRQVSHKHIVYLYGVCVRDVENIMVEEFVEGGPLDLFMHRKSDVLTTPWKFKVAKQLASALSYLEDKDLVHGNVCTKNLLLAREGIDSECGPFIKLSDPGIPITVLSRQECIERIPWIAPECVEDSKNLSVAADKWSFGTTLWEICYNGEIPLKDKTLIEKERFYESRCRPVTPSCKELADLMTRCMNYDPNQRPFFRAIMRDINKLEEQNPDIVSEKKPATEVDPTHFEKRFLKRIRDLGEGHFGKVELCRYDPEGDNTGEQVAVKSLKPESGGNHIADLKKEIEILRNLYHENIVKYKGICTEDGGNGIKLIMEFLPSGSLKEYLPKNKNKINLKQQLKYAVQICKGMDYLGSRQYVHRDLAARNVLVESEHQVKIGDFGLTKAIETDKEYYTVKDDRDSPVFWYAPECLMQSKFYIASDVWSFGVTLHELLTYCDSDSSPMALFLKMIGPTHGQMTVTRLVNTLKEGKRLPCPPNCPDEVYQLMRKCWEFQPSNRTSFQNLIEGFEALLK

`N#CCCCS(=O)(=O)Nc1ccc(-c2cc(NC(=O)C3CC3)nc3[nH]ccc23)cc1F` [Example 77, N-(4-(4-((3-cyanopropyl)sulfonamido)-3-fluorophenyl)-1H-pyrrolo[2,3-b]pyridin-6-yl)cyclopropanecarboxamide]: the IC50 was less than 0.02 µM.

For `O=C(Nc1cc(-c2ccc(NS(=O)(=O)C3CCC3)c(F)c2)c2cc[nH]c2n1)C1CC1` [Example 78, N-(4-(4-(cyclobutanesulfonamido)-3-fluorophenyl)-1H-pyrrolo[2,3-b]pyridin-6-yl)cyclopropanecarboxamide], the IC50 was less than 0.02 µM.

Regarding `CC(C)(C)CS(=O)(=O)Nc1ccc(-c2cc(NC(=O)C3CC3)nc3[nH]ccc23)cc1F` [Example 79, N-(4-(4-((2,2-dimethylpropyl)sulfonamido)-3-fluorophenyl)-1H-pyrrolo[2,3-b]pyridin-6-yl)cyclopropanecarboxamide], the IC50 is less than 0.02 µM. `O=C(Nc1cc(-c2ccc(NS(=O)(=O)CC3CC3)c(F)c2)c2cc[nH]c2n1)C1CC1` [Example 80, N-(4-(4-((cyclopropylmethyl)sulfonamido)-3-fluorophenyl)-1H-pyrrolo[2,3-b]pyridin-6-yl)cyclopropanecarboxamide]: the IC50 was less than 0.02 µM. To `CCS(=O)(=O)Nc1c(F)cc(-c2cc(NC(=O)C3CC3)nc3[nH]ccc23)cc1F` [Example 81, N-(4-(4-(ethylsulfonamido)-3,5-difluorophenyl)-1H-pyrrolo[2,3-b]pyridin-6-yl)cyclopropanecarboxamide] belongs 0.02 to 0.2 µM; to `CCCS(=O)(=O)Nc1c(F)cc(-c2cc(NC(=O)C3CC3)nc3[nH]ccc23)cc1F` [Example 82, N-(4-(3,5-difluoro-4-(propylsulfonamido)phenyl)-1H-pyrrolo[2,3-b]pyridin-6-yl)cyclopropanecarboxamide], 0.02 to 0.2 µM; to `CCS(=O)(=O)Nc1cc(F)c(-c2cc(NC(=O)C3CC3)nc3[nH]ccc23)cc1F` [Example 83, N-(4-(4-(ethylsulfonamido)-2,5-difluorophenyl)-1H-pyrrolo[2,3-b]pyridin-6-yl)cyclopropanecarboxamide], less than 0.02 µM. Take `CCCS(=O)(=O)Nc1cc(F)c(-c2cc(NC(=O)C3CC3)nc3[nH]ccc23)cc1F` [Example 84, N-(4-(2,5-difluoro-4-(propylsulfonamido)phenyl)-1H-pyrrolo[2,3-b]pyridin-6-yl)cyclopropanecarboxamide]: the IC50 is less than 0.02 µM. In the case of `N#CC1(CS(=O)(=O)Nc2ccc(-c3cc(NC(=O)C4CC4)nc4[nH]ccc34)cc2F)CC1` [Example 85, N-(4-(4-(((1-cyanocyclopropyl)methyl)sulfonamido)-3-fluorophenyl)-1H-pyrrolo[2,3-b]pyridin-6-yl)cyclopropanecarboxamide], the IC50 is less than 0.02 µM. `N#CCC1(CS(=O)(=O)Nc2ccc(-c3cc(NC(=O)C4CC4)nc4[nH]ccc34)cc2F)CC1` [Example 86, N-(4-(4-(((1-(cyanomethyl)cyclopropyl)methyl)sulfonamido)-3-fluorophenyl)-1H-pyrrolo[2,3-b]pyridin-6-yl)cyclopropanecarboxamide]: the IC50 was less than 0.02 µM. As for `CC(C)(C#N)CCS(=O)(=O)Nc1ccc(-c2cc(NC(=O)C3CC3)nc3[nH]ccc23)cc1F` [Example 87, N-(4-(4-((3-cyano-3-methylbutyl)sulfonamido)-3-fluorophenyl)-1H-pyrrolo[2,3-b]pyridin-6-yl)cyclopropanecarboxamide], the IC50 is 0.02 to 0.2 µM. On to `N#CC1(CS(=O)(=O)Nc2ccc(-c3cc(NC(=O)C4CC4)nc4[nH]ccc34)cc2)CC1` [Example 88, N-(4-(4-(((1-cyanocyclopropyl)methyl)sulfonamido)phenyl)-1H-pyrrolo[2,3-b]pyridin-6-yl)cyclopropanecarboxamide], for which the IC50 was less than 0.02 µM. To `N#CCC1(CS(=O)(=O)Nc2ccc(-c3cc(NC(=O)C4CC4)nc4[nH]ccc34)cc2)CC1` [Example 89, N-(4-(4-(((1-(cyanomethyl)cyclopropyl)methyl)sulfonamido)phenyl)-1H-pyrrolo[2,3-b]pyridin-6-yl)cyclopropanecarboxamide] belongs less than 0.02 µM. To `Cc1cc(NS(=O)(=O)C2CC2)ccc1-c1cc(NC(=O)C2CC2)nc2[nH]ccc12` [Example 90, N-(4-(4-(cyclopropanesulfonamido)-2-methylphenyl)-1H-pyrrolo[2,3-b]pyridin-6-yl)cyclopropanecarboxamide] belongs 0.02 to 0.2 µM; to `Cc1cc(NS(=O)(=O)C2CCC2)ccc1-c1cc(NC(=O)C2CC2)nc2[nH]ccc12` [Example 91, N-(4-(4-(cyclobutanesulfonamido)-2-methylphenyl)-1H-pyrrolo[2,3-b]pyridin-6-yl)cyclopropanecarboxamide], 0.02 to 0.2 µM. To `Cc1cc(NS(=O)(=O)CC2CC2)ccc1-c1cc(NC(=O)C2CC2)nc2[nH]ccc12` [Example 92, N-(4-(4-((cyclopropylmethyl)sulfonamido)-2-methylphenyl)-1H-pyrrolo[2,3-b]pyridin-6-yl)cyclopropanecarboxamide] belongs 0.02 to 0.2 µM; to `CCS(=O)(=O)Nc1ccc(-c2cc(NC(=O)C3CC3)nc3[nH]cc(C)c23)cc1` [Example 93, N-(4-(4-(ethylsulfonamido)phenyl)-3-methyl-1H-pyrrolo[2,3-b]pyridin-6-yl)cyclopropanecarboxamide], 0.02 to 0.2 µM; to `CCCS(=O)(=O)Nc1ccc(-c2cc(NC(=O)C3CC3)nc3[nH]cc(C)c23)cc1` [Example 94, N-(3-methyl-4-(4-(propylsulfonamido)phenyl)-1H-pyrrolo[2,3-b]pyridin-6-yl)cyclopropanecarboxamide], 0.02 to 0.2 µM. As for `CCCS(=O)(=O)Nc1ccc(-c2cc(NC(=O)C3CC3)nc3[nH]ccc23)c(C)c1` [Example 95, N-(4-(2-methyl-4-(propylsulfonamido)phenyl)-1H-pyrrolo[2,3-b]pyridin-6-yl)cyclopropanecarboxamide], the IC50 was in the range of 0.02 to 0.2 µM. With `Cc1cc(NS(=O)(=O)CCCC#N)ccc1-c1cc(NC(=O)C2CC2)nc2[nH]ccc12` [Example 96, N-(4-(4-((3-cyanopropyl)sulfonamido)-2-methylphenyl)-1H-pyrrolo[2,3-b]pyridin-6-yl)cyclopropanecarboxamide], the IC50 is 0.02 to 0.2 µM. To `CCS(=O)(=O)Nc1ccc(-c2cc(NC(=O)C3CC3)[n+]([O-])c3[nH]ccc23)cc1F` [Example 97, 6-(cyclopropanecarboxamido)-4-(4-(ethylsulfonamido)-3-fluorophenyl)-1H-pyrrolo[2,3-b]pyridine 7-oxide] belongs 0.02 to 0.2 µM. To `CCS(=O)(=O)Nc1ccc(-c2cc(NC(=O)C3CC3)nc3[nH]ccc23)cc1C(F)(F)F` [Example 98, N-(4-(4-(ethylsulfonamido)-3-(trifluoromethyl)phenyl)-1H-pyrrolo[2,3-b]pyridin-6-yl)cyclopropanecarboxamide] belongs 0.02 to 0.2 µM; to `CCc1cc(NS(=O)(=O)CC)ccc1-c1cc(NC(=O)C2CC2)nc2[nH]ccc12` [Example 99, N-(4-(2-ethyl-4-(ethylsulfonamido)phenyl)-1H-pyrrolo[2,3-b]pyridin-6-yl)cyclopropanecarboxamide], less than 0.02 µM.

For the molecule `CCCS(=O)(=O)Nc1ccc(-c2cc(NC(=O)C3CC3)nc3[nH]ccc23)c(C)c1F` [Example 100, N-(4-(3-fluoro-2-methyl-4-(propylsulfonamido)phenyl)-1H-pyrrolo[2,3-b]pyridin-6-yl)cyclopropanecarboxamide], the IC50 lay in the range of 0.02 to 0.2 µM.

Regarding `CCS(=O)(=O)Nc1ccc(-c2cc(NC(=O)C3CC3)nc3[nH]ccc23)c(C)c1F` [Example 101, N-(4-(4-(ethylsulfonamido)-3-fluoro-2-methylphenyl)-1H-pyrrolo[2,3-b]pyridin-6-yl)cyclopropanecarboxamide], the IC50 lay in the range of 0.02 to 0.2 µM.

Consider `Cc1cc(NS(=O)(=O)CC2(C#N)CC2)ccc1-c1cc(NC(=O)C2CC2)nc2[nH]ccc12` [Example 102, N-(4-(4-(((1-cyanocyclopropyl)methyl)sulfonamido)-2-methylphenyl)-1H-pyrrolo[2,3-b]pyridin-6-yl)cyclopropanecarboxamide], for which the IC50 is less than 0.02 µM. With `Cc1cc(NS(=O)(=O)CC2(CC#N)CC2)ccc1-c1cc(NC(=O)C2CC2)nc2[nH]ccc12` [Example 103, N-(4-(4-(((1-(cyanomethyl)cyclopropyl)methyl)sulfonamido)-2-methylphenyl)-1H-pyrrolo[2,3-b]pyridin-6-yl)cyclopropanecarboxamide], the IC50 is less than 0.02 µM. As to `N#CCCCS(=O)(=O)Nc1cc(F)c(-c2cc(NC(=O)C3CC3)nc3[nH]ccc23)cc1F` [Example 104, N-(4-(4-((3-cyanopropyl)sulfonamido)-2,5-difluorophenyl)-1H-pyrrolo[2,3-b]pyridin-6-yl)cyclopropanecarboxamide], the IC50 lay within 0.02 to 0.2 µM. As to `N#CC1(CS(=O)(=O)Nc2cc(F)c(-c3cc(NC(=O)C4CC4)nc4[nH]ccc34)cc2F)CC1` [Example 105, N-(4-(4-(((1-cyanocyclopropyl)methyl)sulfonamido)-2,5-difluorophenyl)-1H-pyrrolo[2,3-b]pyridin-6-yl)cyclopropanecarboxamide], the IC50 is less than 0.02 µM. In the case of `N#CCC1(CS(=O)(=O)Nc2cc(F)c(-c3cc(NC(=O)C4CC4)nc4[nH]ccc34)cc2F)CC1` [Example 106, N-(4-(4-(((1-(cyanomethyl)cyclopropyl)methyl)sulfonamido)-2,5-difluorophenyl)-1H-pyrrolo[2,3-b]pyridin-6-yl)cyclopropanecarboxamide], the IC50 was less than 0.02 µM. To `N#CC1(CS(=O)(=O)Nc2c(F)cc(-c3cc(NC(=O)C4CC4)nc4[nH]ccc34)cc2F)CC1` [Example 107, N-(4-(4-(((1-cyanocyclopropyl)methyl)sulfonamido)-3,5-difluorophenyl)-1H-pyrrolo[2,3-b]pyridin-6-yl)cyclopropanecarboxamide] belongs 0.02 to 0.2 µM.

The values above are taken from US11524968B2, “Heterocyclic compound as a protein kinase inhibitor” (HK inno.N Corporation, priority 2017, dated 2022).
